In PubChem BioAssay AID1259411 (Chemical Carcinogenesis Research Information System (CCRIS), 2018):
Activity calls are given as the source filed them. No rule for the calls is given here.

Tested on: rodent carcinogenicity bioassays, tumor incidence
Test: CCRIS carcinogenicity studies
In short: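 Archive of carcinogenicity, mutagenicity, tumor promotion and tumor inhibition results drawn from journals, NCI reports and other sources, expert-reviewed; covers 1985-2011 and is no longer updated.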

For `O=c1[nH]cc(F)c(=O)[nH]1`, the carcinogen call (Species: MOUSE, Strain/Sex: B6C3F1/FEMALE, Route: ORAL, Dose: 0, 30, 60 PPM IN DRINKING WATER FOR 82 WK (STUDY DURATION: 86 WK), Dose: 0, 30, 60 PPM IN DRINKING WATER FOR 82 WK (STUDY DURATION: 86 WK)) was “inactive; negative”, the carcinogen call (Species: MOUSE, Strain/Sex: B6C3F1/MALE, Route: ORAL, Dose: 0, 30, 60 PPM IN DRINKING WATER FOR 82 WK (STUDY DURATION: 86 WK), Dose: 0, 30, 60 PPM IN DRINKING WATER FOR 82 WK (STUDY DURATION: 86 WK)) was “inactive; negative” and the carcinogen call (Species: MOUSE, Strain/Sex: BALB/FEMALE, Route: INTRAPERITONEAL, Dose: 0, 30 MG/KG IN STERILE SALINE 1/WK FOR 50 WK (STUDY DURATION: 105 WK), Tumor Site: Type of Lesion: LUNG: TUMOR, LYMPHORETICULAR SYSTEM: LYMPHOMA OR LEUKEMIA) was “active; positive”. The carcinogen call (Species: MOUSE, Strain/Sex: BALB/MALE, Route: INTRAPERITONEAL, Dose: 0, 30 MG/KG IN STERILE SALINE 1/WK FOR 50 WK (STUDY DURATION: 105 WK), Tumor Site: Type of Lesion: LUNG: TUMOR) was “active; positive”, the carcinogen call (Species: RAT, Strain/Sex: F344/FEMALE, Route: ORAL, Dose: 0, 62, 125 PPM IN DRINKING WATER FOR 111 WK (STUDY DURATION: 111 WK), Dose: 0, 62, 125 PPM IN DRINKING WATER FOR 111 WK (STUDY DURATION: 111 WK)) was “inactive; negative” and the carcinogen call (Species: RAT, Strain/Sex: F344/MALE, Route: ORAL, Dose: 0, 62, 125 PPM IN DRINKING WATER FOR 111 WK (STUDY DURATION: 111 WK), Dose: 0, 62, 125 PPM IN DRINKING WATER FOR 111 WK (STUDY DURATION: 111 WK)) was “inactive; negative”.
`NC(=O)OCCO` was tested, and the carcinogen call (Species: MOUSE, Strain/Sex: STRAIN-A/MALE, Route: INTRAPERITONEAL, Dose: 0, 1.12, 4.6, 11.2 MMOL/KG IN ISOTONIC SALINE ONCE AT 6 WK OF AGE (STUDY DURATION: 16 WK), Dose: 0, 1.12, 4.6, 11.2 MMOL/KG IN ISOTONIC SALINE ONCE AT 6 WK OF AGE (STUDY DURATION: 16 WK), Tumor Site: Type of Lesion: LUNG: ADENOMA) was “active; positive”.
For `COc1ccc(N)cc1`, the carcinogen call (Species: MOUSE, Strain/Sex: B6C3F1/FEMALE, Route: ORAL, Dose: 0, 0.5, 1.0% OF DIET FOR 103 WK (STUDY DURATION: 104 WK), Dose: 0, 0.5, 1.0% OF DIET FOR 103 WK (STUDY DURATION: 104 WK)) was “inactive; negative”, the carcinogen call (Species: MOUSE, Strain/Sex: B6C3F1/MALE, Route: ORAL, Dose: 0, 0.5, 1.0% OF DIET FOR 103 WK (STUDY DURATION: 104 WK), Dose: 0, 0.5, 1.0% OF DIET FOR 103 WK (STUDY DURATION: 104 WK)) was “inactive; negative” and the carcinogen call (Species: RAT, Strain/Sex: F344/FEMALE, Route: ORAL, Dose: 0, 0.3, 0.6% OF DIET FOR 103 WK (STUDY DURATION: 104-105 WK), Dose: 0, 0.3, 0.6% OF DIET FOR 103 WK (STUDY DURATION: 104-105 WK)) was “inactive; negative”. For the same molecule, the carcinogen call (Species: RAT, Strain/Sex: F344/MALE, Route: ORAL, Dose: 0, 0.3, 0.6% OF DIET FOR 103 WK (STUDY DURATION: 104-105 WK), Dose: 0, 0.3, 0.6% OF DIET FOR 103 WK (STUDY DURATION: 104-105 WK), Tumor Site: Type of Lesion: PREPUTIAL GLAND: ADENOMA OR CARCINOMA) was “equivocal”.
For `CCN=[N+]([O-])CC`, the carcinogen call (Species: RAT, Route: ORAL, Tumor Site: Type of Lesion: LIVER: HEMANGIOENDOTHELIOMA) was “active; positive”, the carcinogen call (Species: RAT, Route: SUBCUTANEOUS, Tumor Site: Type of Lesion: MAMMARY GLAND, BRAIN (OLFACTORY BULB): NEUROBLASTOMA, BRAIN: GLIOMA HEMATOPOIETIC SYSTEM (LEUKEMIA), Tumor Site: Type of Lesion: MAMMARY GLAND, BRAIN (OLFACTORY BULB): NEUROBLASTOMA, BRAIN: GLIOMA HEMATOPOIETIC SYSTEM (LEUKEMIA)) was “active; positive” and the carcinogen call (Species: RAT, Strain/Sex: F344/MALE, Route: ORAL, Dose: 0, 14, 55 MG/ML IN A NEUTRAL DEIONIZED DRINKING WATER SOLUTION 5 D/WK FOR 30 WK (TOTAL DOSE 42; 132 MG) (STUDY DURATION:, Dose: 0, 14, 55 MG/ML IN A NEUTRAL DEIONIZED DRINKING WATER SOLUTION 5 D/WK FOR 30 WK (TOTAL DOSE 42; 132 MG) (STUDY DURATION:, Tumor Site: Type of Lesion: LIVER: CARCINOMA, HEMANGIOSARCOMA, ESOPHAGUS: TUMOR, NASAL CAVITY: SQUAMOUS CELL CARCINOMA, ADENOCARCINOMA, Tumor Site: Type of Lesion: LIVER: CARCINOMA, HEMANGIOSARCOMA, ESOPHAGUS: TUMOR, NASAL CAVITY: SQUAMOUS CELL CARCINOMA, ADENOCARCINOMA) was “active; positive”.
With `O=Cc1ccco1` the carcinogen call (Species: MOUSE, Strain/Sex: B6C3F1/FEMALE, Route: GAVAGE, Dose: 0, 50, 100, 175 MG/KG IN CORN OIL 5 D/WK FOR 103 WK (STUDY DURATION: 105 WK), Dose: 0, 50, 100, 175 MG/KG IN CORN OIL 5 D/WK FOR 103 WK (STUDY DURATION: 105 WK), Tumor Site: Type of Lesion: LIVER: HEPATOCELLULAR ADENOMA, HEPATOCELLULAR ADENOMA OR CARCINOMA, FORESTOMACH: SQUAMOUS PAPILLOMA) was “active; positive”, the carcinogen call (Species: MOUSE, Strain/Sex: B6C3F1/MALE, Route: GAVAGE, Dose: 0, 50, 100, 175 MG/KG IN CORN OIL 5 D/WK FOR 103 WK (STUDY DURATION: 105 WK), Dose: 0, 50, 100, 175 MG/KG IN CORN OIL 5 D/WK FOR 103 WK (STUDY DURATION: 105 WK), Tumor Site: Type of Lesion: LIVER: HEPATOCELLULAR ADENOMA, HEPATOCELLULAR CARCINOMA) was “active; positive” and the carcinogen call (Species: MOUSE, Strain/Sex: CD-1/FEMALE, Route: DERMAL, Dose: 0, 50 UMOL/0.1 ML DMSO 2/WK FOR 5 WK FOLLOWED 1 WK LATER BY 0.1 ML ACETONE 2/WK FOR 47 WK (STUDY DURATION: 52 WK)) was “inactive; negative”. For the same molecule, the carcinogen call (Species: RAT, Strain/Sex: F344/FEMALE, Route: GAVAGE, Dose: 0, 30, 60 MG/KG IN CORN OIL 5 D/WK FOR 103 WK (STUDY DURATION: 105 WK), Dose: 0, 30, 60 MG/KG IN CORN OIL 5 D/WK FOR 103 WK (STUDY DURATION: 105 WK)) was “inactive; negative” and the carcinogen call (Species: RAT, Strain/Sex: F344/MALE, Route: GAVAGE, Dose: 0, 30, 60 MG/KG IN CORN OIL 5 D/WK FOR 103 WK (STUDY DURATION: 105 WK), Dose: 0, 30, 60 MG/KG IN CORN OIL 5 D/WK FOR 103 WK (STUDY DURATION: 105 WK), Tumor Site: Type of Lesion: BILE DUCT: CHOLANGIOCARCINOMA) was “active; positive”.
For `Clc1cccc(-c2ccc(Cl)c(Cl)c2Cl)c1Cl`, the carcinogen call (Species: MOUSE, Strain/Sex: BALB/MALE, Route: ORAL, Dose: 300 MG/KG IN DIET FOR 6 OR 11 MO, Tumor Site: Type of Lesion: LIVER: HEPATOMA) was “active; positive”, the carcinogen call (Species: RAT, Strain/Sex: F344/FEMALE, Route: ORAL, Dose: 0, 25, 50, 100 PPM IN DIET FOR 104-105 WK (STUDY DURATION: 104-105 WK), Dose: 0, 25, 50, 100 PPM IN DIET FOR 104-105 WK (STUDY DURATION: 104-105 WK), Tumor Site: Type of Lesion: LIVER: ADENOMA, STOMACH: ADENOMA, ADENOCARCINOMA) was “equivocal” and the carcinogen call (Species: RAT, Strain/Sex: F344/MALE, Route: ORAL, Dose: 0, 25, 50, 100 PPM IN DIET FOR 104-105 WK (STUDY DURATION: 104-105 WK), Dose: 0, 25, 50, 100 PPM IN DIET FOR 104-105 WK (STUDY DURATION: 104-105 WK), Tumor Site: Type of Lesion: LIVER: HEPATOCELLULAR ADENOMA, HEPATOCELLULAR CARCINOMA, GASTROINTESTINAL SYSTEM: ADENOCARCINOMA OR CARCINOMA) was “equivocal”. For the same molecule, the carcinogen call (Species: RAT, Strain/Sex: SPRAGUE-DAWLEY/FEMALE, Route: ORAL, Dose: 0, 25, 50, 100 PPM IN DIET FOR THE DURATION OF STUDY (STUDY DURATION: 24 MO), Dose: 0, 25, 50, 100 PPM IN DIET FOR THE DURATION OF STUDY (STUDY DURATION: 24 MO), Tumor Site: Type of Lesion: LIVER: TUMOR) was “active; positive” and the carcinogen call (Species: RAT, Strain/Sex: SPRAGUE-DAWLEY/MALE, Route: ORAL, Dose: 0, 25, 50, 100 PPM IN DIET FOR THE DURATION OF STUDY (STUDY DURATION: 24 MO), Dose: 0, 25, 50, 100 PPM IN DIET FOR THE DURATION OF STUDY (STUDY DURATION: 24 MO), Tumor Site: Type of Lesion: THYROID GLAND: ADENOMA OR CARCINOMA) was “active; positive”.
